In patent publication US20250122183A1 (Pfizer Inc., priority 2023, published 2025):

Assays:
Format in all cases: biochemical
[1] = target: KAT7+JADE1+EAF6+ING5 4 protein complex (Homo sapiens (Human), UniProt O95251); assay: KAT7 JADE1 assay (SAMDI-MS acetylation of H3 1-21 peptide); conditions: Morrison equation fit; replicate number in parentheses; read-out: KAT7 JADE1 Ki (nM) (replicate number)
KAT8 Full length enzyme = KAT8 Full length enzyme (Homo sapiens (Human), UniProt Q9H7Z6); assay: KAT8 assay (SAMDI-MS acetylation of H3 1-21 peptide); conditions: Morrison equation fit; replicate number in parentheses; read-out: KAT8 Ki (nM) (replicate number)
Chain of KAT8 Full length enzyme (Q9H7Z6 whole entry): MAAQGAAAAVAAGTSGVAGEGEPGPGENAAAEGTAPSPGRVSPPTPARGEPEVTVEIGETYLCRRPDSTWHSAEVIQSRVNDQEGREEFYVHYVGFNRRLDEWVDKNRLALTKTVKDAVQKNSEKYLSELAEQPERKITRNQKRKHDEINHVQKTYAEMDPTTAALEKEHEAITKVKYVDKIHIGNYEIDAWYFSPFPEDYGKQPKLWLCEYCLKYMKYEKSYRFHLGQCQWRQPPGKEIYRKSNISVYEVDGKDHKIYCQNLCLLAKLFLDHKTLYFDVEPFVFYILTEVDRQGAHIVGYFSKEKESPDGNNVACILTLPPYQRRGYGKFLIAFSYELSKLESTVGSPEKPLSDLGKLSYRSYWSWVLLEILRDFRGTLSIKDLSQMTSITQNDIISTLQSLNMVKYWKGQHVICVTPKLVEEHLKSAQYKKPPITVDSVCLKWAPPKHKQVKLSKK

KAT6A Full length enzyme = KAT6A Full length enzyme (Homo sapiens (Human), UniProt Q92794); assay: KAT6A assay (SAMDI-MS acetylation of H3 1-21 peptide); conditions: Morrison equation fit; replicate number in parentheses; read-out: KAT6A Ki (nM) (replicate number)
Chain of KAT6A Full length enzyme (Q92794 other isoform, or with tags, fused parts or gaps): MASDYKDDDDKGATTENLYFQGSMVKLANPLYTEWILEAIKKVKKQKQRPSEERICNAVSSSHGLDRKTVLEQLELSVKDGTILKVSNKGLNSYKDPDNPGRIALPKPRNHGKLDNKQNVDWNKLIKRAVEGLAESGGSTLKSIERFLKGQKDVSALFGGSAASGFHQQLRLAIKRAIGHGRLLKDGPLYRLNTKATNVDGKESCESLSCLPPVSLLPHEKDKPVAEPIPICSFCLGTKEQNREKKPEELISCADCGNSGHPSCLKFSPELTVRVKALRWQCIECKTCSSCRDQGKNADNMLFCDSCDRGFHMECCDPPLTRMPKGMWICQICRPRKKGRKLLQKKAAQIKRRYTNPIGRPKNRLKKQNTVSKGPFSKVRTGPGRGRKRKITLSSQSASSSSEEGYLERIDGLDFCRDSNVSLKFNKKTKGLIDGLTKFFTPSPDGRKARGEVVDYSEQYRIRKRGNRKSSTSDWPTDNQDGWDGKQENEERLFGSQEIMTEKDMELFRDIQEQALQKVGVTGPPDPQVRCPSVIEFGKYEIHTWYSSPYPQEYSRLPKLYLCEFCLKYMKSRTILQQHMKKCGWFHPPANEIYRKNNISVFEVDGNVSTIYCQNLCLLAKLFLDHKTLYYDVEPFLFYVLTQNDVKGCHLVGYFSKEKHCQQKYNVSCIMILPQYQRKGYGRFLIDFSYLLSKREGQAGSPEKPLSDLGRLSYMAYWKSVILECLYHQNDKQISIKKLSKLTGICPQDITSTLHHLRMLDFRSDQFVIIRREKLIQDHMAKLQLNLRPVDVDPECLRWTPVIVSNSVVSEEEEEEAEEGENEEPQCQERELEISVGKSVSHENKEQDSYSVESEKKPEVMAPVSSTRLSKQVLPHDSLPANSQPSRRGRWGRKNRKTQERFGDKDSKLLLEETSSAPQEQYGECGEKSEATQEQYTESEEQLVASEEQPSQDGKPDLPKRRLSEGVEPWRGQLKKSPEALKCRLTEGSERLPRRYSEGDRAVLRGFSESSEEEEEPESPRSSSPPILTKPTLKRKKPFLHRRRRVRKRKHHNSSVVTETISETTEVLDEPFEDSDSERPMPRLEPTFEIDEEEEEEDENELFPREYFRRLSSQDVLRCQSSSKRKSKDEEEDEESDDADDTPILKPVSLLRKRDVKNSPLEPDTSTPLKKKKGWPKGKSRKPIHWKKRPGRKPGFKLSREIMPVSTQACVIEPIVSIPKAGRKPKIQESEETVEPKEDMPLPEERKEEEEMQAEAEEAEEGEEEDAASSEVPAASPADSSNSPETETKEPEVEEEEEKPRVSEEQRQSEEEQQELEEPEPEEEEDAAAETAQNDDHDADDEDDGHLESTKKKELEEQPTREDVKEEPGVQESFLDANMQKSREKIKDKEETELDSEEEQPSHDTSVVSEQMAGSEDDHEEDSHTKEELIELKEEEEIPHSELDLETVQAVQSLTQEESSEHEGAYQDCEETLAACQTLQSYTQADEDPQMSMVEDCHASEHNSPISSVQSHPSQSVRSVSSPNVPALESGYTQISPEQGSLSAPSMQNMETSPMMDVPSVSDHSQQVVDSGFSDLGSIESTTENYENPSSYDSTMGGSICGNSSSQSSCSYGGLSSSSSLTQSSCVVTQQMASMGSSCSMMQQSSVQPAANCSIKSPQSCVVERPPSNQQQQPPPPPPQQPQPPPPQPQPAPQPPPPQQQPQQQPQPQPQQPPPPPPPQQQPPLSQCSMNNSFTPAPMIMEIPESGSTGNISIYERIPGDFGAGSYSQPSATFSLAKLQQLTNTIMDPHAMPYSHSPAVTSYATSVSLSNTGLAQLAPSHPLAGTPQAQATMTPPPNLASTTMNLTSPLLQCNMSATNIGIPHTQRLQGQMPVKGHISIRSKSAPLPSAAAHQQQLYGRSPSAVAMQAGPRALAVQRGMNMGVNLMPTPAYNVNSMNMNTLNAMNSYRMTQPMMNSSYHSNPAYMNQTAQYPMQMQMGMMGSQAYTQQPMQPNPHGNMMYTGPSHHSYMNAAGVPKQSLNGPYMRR

KAT5 Full length enzyme = KAT5 Full length enzyme (Homo sapiens (Human), UniProt Q92993); assay: KAT5 assay (SAMDI-MS acetylation of H4 1-21 peptide); conditions: Morrison equation fit; replicate number in parentheses; read-out: KAT5 Ki (nM) (replicate number)
Chain of KAT5 Full length enzyme (Q92993 whole entry): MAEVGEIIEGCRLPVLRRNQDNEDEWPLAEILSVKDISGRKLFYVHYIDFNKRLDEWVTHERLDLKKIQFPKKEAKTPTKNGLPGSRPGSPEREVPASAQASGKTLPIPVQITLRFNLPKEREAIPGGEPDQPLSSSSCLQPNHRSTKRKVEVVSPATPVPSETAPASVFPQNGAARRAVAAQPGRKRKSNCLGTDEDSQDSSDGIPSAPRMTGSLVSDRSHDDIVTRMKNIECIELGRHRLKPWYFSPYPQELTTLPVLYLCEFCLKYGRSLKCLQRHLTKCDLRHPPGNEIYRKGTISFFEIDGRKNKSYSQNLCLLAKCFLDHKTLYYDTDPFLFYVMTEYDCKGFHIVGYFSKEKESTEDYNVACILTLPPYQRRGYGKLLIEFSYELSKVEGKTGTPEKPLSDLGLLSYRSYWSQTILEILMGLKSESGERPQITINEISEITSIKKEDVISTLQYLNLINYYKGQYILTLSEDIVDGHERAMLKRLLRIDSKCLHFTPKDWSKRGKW

[2] = target: KAT7+BRPF1+EAF6+ING5 4 protein complex (Homo sapiens (Human), UniProt O95251); assay: KAT7 BRPF1 assay (SAMDI-MS acetylation of H3 1-21 peptide); conditions: Morrison equation fit; replicate number in parentheses
[3] = target: KAT7+BRPF2+EAF6+ING5 4 protein complex (Homo sapiens (Human), UniProt O95251); assay: KAT7 BRPF2 assay (SAMDI-MS acetylation of H3 1-21 peptide); conditions: Morrison equation fit; replicate number in parentheses; read-out: KAT7 BRPF2 Ki (nM) (replicate number)

SMILES | Ki [1] [nM] | Ki (KAT8 Full length enzyme) [nM] | Ki (KAT6A Full length enzyme) [nM] | Ki (KAT5 Full length enzyme) [nM] | Ki [2] [nM] | Ki [3] [nM]
COc1cc2c(NS(=O)(=O)c3c(OC)cc(C4CCCN4C)cc3OC)noc2cc1Nc1cc(C2CC2)n[nH]1 (racemic) [Example 154, N-{6-[(3-cyclopropyl-1H-pyrazol-5-yl)amino]-5-methoxy-1,2-benzoxazol-3-yl}-2,6-dimethoxy-4-(1-methylpyrrolidin-2-yl)benzene-1-sulfonamide] | 15.3 | 2140 | 2 | 88.3 | 7.8 | 
COc1cccc(OC)c1S(=O)(=O)Nc1noc2cc(Nc3cc[nH]n3)cc(OC)c12 [Example 01, 2,6-Dimethoxy-N-{4-methoxy-6-[(1H-pyrazol-3-yl)amino]-1,2-benzoxazol-3-yl}benzene-1-sulfonamide] | 131 | 455 | 0.4 | 441 | 37.7 | 37
COc1cc2c(NS(=O)(=O)c3c(OC)cccc3OC(C)C)noc2cc1Nc1cc[nH]n1 [Example 32, 2-methoxy-N-{5-methoxy-6-[(1H-pyrazol-3-yl)amino]-1,2-benzoxazol-3-yl}-6-[(propan-2-yl)oxy]benzene-1-sulfonamide] | 361 | > 16300 |  | 2740 | 89.7 | 79.5
COc1cc2c(NS(=O)(=O)c3c(OC)cccc3OC3CCC3)noc2cc1Nc1cc[nH]n1 [Example 33, 2-(cyclobutyloxy)-6-methoxy-N-{5-methoxy-6-[(1H-pyrazol-3-yl)amino]-1,2-benzoxazol-3-yl}benzene-1-sulfonamide] | 142 | 733 |  | 988 | 15.4 | 
COc1cc2c(NS(=O)(=O)c3c(OC)cccc3OC3CC3)noc2cc1Nc1cc[nH]n1 [Example 34, 2-(cyclopropyloxy)-6-methoxy-N-{5-methoxy-6-[(1H-pyrazol-3-yl)amino]-1,2-benzoxazol-3-yl}benzene-1-sulfonamide] | 51.8 | 1240 | 0.4 | 365 | 11.2 | 
COC(=O)c1cc(Nc2cc3onc(NS(=O)(=O)c4c(OC)cccc4OC)c3cc2OC)[nH]n1 [Example 55, methyl 5-({3-[(2,6-dimethoxybenzene-1-sulfonyl)amino]-5-methoxy-1,2-benzoxazol-6-yl}amino)-1H-pyrazole-3-carboxylate] | 663 |  | 2.4 |  | 199 | 147
COc1cccc(OC)c1S(=O)(=O)Nc1noc2cc(Nc3cc(C4CC4)n[nH]3)c(F)c(OC)c12 [Example 71, N-{6-[(3-cyclopropyl-1H-pyrazol-5-yl)amino]-5-fluoro-4-methoxy-1,2-benzoxazol-3-yl}-2,6-dimethoxybenzene-1-sulfonamide] | 20.9 | 4050 | 2.6 | 591 | 2.2 | 
CCc1cc(Nc2cc3onc(NS(=O)(=O)c4c(OC)cccc4OC)c3c(OC)c2F)[nH]n1 [Example 72, N-{6-[(3-ethyl-1H-pyrazol-5-yl)amino]-5-fluoro-4-methoxy-1,2-benzoxazol-3-yl}-2,6-dimethoxybenzene-1-sulfonamide] | 21.5 | > 6970 | 4.6 | 1010 | 1.1 | 
COc1cc2c(NS(=O)(=O)c3c(OC)cccc3OC)noc2cc1Nc1cc(Cc2ccccc2)n[nH]1 [Example 109, N-{6-[(3-benzyl-1H-pyrazol-5-yl)amino]-5-methoxy-1,2-benzoxazol-3-yl}-2,6-dimethoxybenzene-1-sulfonamide] | 18.5 | 2930 | 0.8 | 326 | 5 | 
COc1cc2c(NS(=O)(=O)c3c(OC)cccc3OC)noc2cc1Nc1cc(CC(C)C)n[nH]1 [Example 114, 2,6-dimethoxy-N-(5-methoxy-6-{[3-(2-methylpropyl)-1H-pyrazol-5-yl]amino}-1,2-benzoxazol-3-yl)benzene-1-sulfonamide] | 22 | 3360 | 1.3 | 312 | 2.1 | 
COc1cc2c(NS(=O)(=O)c3c(OC)cc(-c4cscn4)cc3OC)noc2cc1Nc1cc(C2CC2)n[nH]1 [Example 121, N-{6-[(3-cyclopropyl-1H-pyrazol-5-yl)amino]-5-methoxy-1,2-benzoxazol-3-yl}-2,6-dimethoxy-4-(1,3-thiazol-4-yl)benzene-1-sulfonamide] | 8.9 | 1120 | 0.7 | 106 | 2.1 | 
COc1cc2c(NS(=O)(=O)c3c(OC)cc(-c4ccn(C)n4)cc3OC)noc2cc1Nc1cc(C2CC2)n[nH]1 [Example 122, N-{6-[(3-cyclopropyl-1H-pyrazol-5-yl)amino]-5-methoxy-1,2-benzoxazol-3-yl}-2,6-dimethoxy-4-(1-methyl-1H-pyrazol-3-yl)benzene-1-sulfonamide] | 3 | 395 | 0.3 | 45.3 | 1.2 | 
COc1cc2c(NS(=O)(=O)c3c(OC)cc(CN4CC[C@@H](F)C4)cc3OC)noc2cc1Nc1cc(C2CC2)n[nH]1 [Example 201, N-{6-[(3-cyclopropyl-1H-pyrazol-5-yl)amino]-5-methoxy-1,2-benzoxazol-3-yl}-4-{[(3R)-3-fluoropyrrolidin-1-yl]methyl}-2,6-dimethoxybenzene-1-sulfonamide] | 4.1 | 2190 | 0.6 | 192 | 3.4 | 
COc1cc2c(NS(=O)(=O)c3c(OC)cc(CN4CC(F)(F)C4)cc3OC)noc2cc1Nc1cc(C2CC2)n[nH]1 [Example 203, N-{6-[(3-cyclopropyl-1H-pyrazol-5-yl)amino]-5-methoxy-1,2-benzoxazol-3-yl}-4-[(3,3-difluoroazetidin-1-yl)methyl]-2,6-dimethoxybenzene-1-sulfonamide] | 4.3 | 1220 | 0.4 | 21.7 | 3 | 
COc1cc2c(NS(=O)(=O)c3c(OC)cc(-c4ncc(C)cn4)cc3OC)noc2cc1Nc1cc(C2CC2)n[nH]1 [Example 213, N-{6-[(3-cyclopropyl-1H-pyrazol-5-yl)amino]-5-methoxy-1,2-benzoxazol-3-yl}-2,6-dimethoxy-4-(5-methylpyrimidin-2-yl)benzene-1-sulfonamide] | 3.9 | 1570 | 0.5 |  | 1.7 | 
COc1cc2c(NS(=O)(=O)c3c(OC)cc(-c4nccc(CN(C)C)n4)cc3OC)noc2cc1Nc1cc(C2CC2)n[nH]1 [Example 222, N-{6-[(3-cyclopropyl-1 H-pyrazol-5-yl)amino]-5-methoxy-1,2-benzoxazol-3-yl}-4-{4-[(dimethylamino)methyl]pyrimidin-2-yl}-2,6-dimethoxybenzene-1-sulfonamide] | 4.5 | 958 | 0.5 | 27.9 | 4 | 
COc1cc2c(NS(=O)(=O)c3c(OC)cc(-c4ncc(N5CCN(C)CC5)cn4)cc3OC)noc2cc1Nc1cc(C2CC2)n[nH]1 [Example 226, N-{6-[(3-cyclopropyl-1 H-pyrazol-5-yl)amino]-5-methoxy-1,2-benzoxazol-3-yl}-2,6-dimethoxy-4-[5-(4-methylpiperazin-1-yl)pyrimidin-2-yl]benzene-1-sulfonamide] | 3 | 572 | 0.3 | 11.6 | 2.4 | 
